Test results taken from patent US4338305A, “Use of LRH and LRH agonists” (American Home Products Corporation, priority 1975, dated 1982).
Structures can show the parent of a compound that is named as a salt. Where two headings read alike, the source gives them in different places. Non-standard residues stand in square brackets, D forms with d. Residues, ends and D or L forms follow the SMILES beside them. pGlu = O=C1CC[C@@H](C(=O)O)N1

Columns and labels:
[1] = system: Female, Sprague-Dawley rats
Description: Female, Sprague-Dawley rats, 350±30 g., are caged daily (P.M.) with adult, sexually experienced Sprague-Dawley males. Vaginal smears are taken each A.M. after cohabitation. The presence of vaginal sperm is used as the index of mating and the initiation of pregnancy. Day 1 of pregnancy is taken as the day sperm is found in the vaginal smear. Mated females are then grouped separately. Treatment is begun at any time over the first 12 days of pregnancy at a divided dose (9 A.M. and 3 P.M.) or a single treatment. Claudogenic activity is defined for compounds administered over the first 7 days inclusive of pregnancy (Pre-implantation). Interceptive activity is defined for compounds administered days 7-12 inclusive of pregnancy (Post-implantation). Rats are sacrificed on day 14 (claudogen), day 18 (interceptive) or allowed to come to term prior to the option of sacrifice (claudogen or interceptive.) Rats containing at least one "Normal" fetus are considered pregnant.
For the purpose of defining the post-coital stages of pregnancy in the rat as an experimental model, the following schedule is provided in definition of post-coital contraceptive activity which, for the purpose of this disclosure, is intended to embrace both pre-(claudogenic) and post-(interceptive) implantation contraceptive activity: day 1--vaginal sperm; days 1-3--ova transport in oviducts, and fertilization; days 3-5 blastocyst free in uterine lumen; days 5-7--implantation into uterine wall; days>7--post implantation.

[2] = literature report; cited from earlier work
Proestrous female rats = experiment: Ovulation Induction in the Rat; format: in vivo; conditions: as a result of induced LH production
Procedure: (b) Ovulation Induction in the Rat
Proestrous female rats were injected intraperitoneally with a hypnotic dose of Nembutal about (~60 mg/kg) at 1:30 P.M. This treatment blocks the spontaneous ovulatory surge of pituitary LH which generally occurs between 2:00 and 4:00 P.M. Between 1:40 and 1:50 P.M. the recipients then received the test material via the jugular vein. The following morning the animals are sacrificed and the fallopian tubes examined for ova under a dissecting microscope.

[3] = PO, total daily dose 500 μg/rat, Rx days 7-12 post coitus
[4] = PO, total daily dose 1000 μg/rat, Rx days 1-7 post coitus
[5] = PO, total daily dose 1000 μg/rat, Rx days 7-12 post coitus
[6] = SC, total daily dose 5.0 μg/rat, Rx days 7-12 post coitus
[7] = SC, total daily dose 100 μg/rat, Rx days 1-3 post coitus
[8] = SC, total daily dose 100 μg/rat, Rx days 1-7 post coitus
[9] = SC, total daily dose 200 μg/rat, Rx days 1-3 post coitus
[10] = SC, total daily dose 5000 μg/rat, Rx day 3 post coitus
[11] = PO, total daily dose 500 μg/rat, Rx days 1-7 post coitus
[12] = SC, total daily dose 300 μg/rat, Rx days 1-3 post coitus

SMILES: CCNC(=O)[C@@H]1CCCN1C(=O)[C@H](CCCNC(=N)N)NC(=O)[C@H](CC(C)C)NC(=O)[C@@H](C)NC(=O)[C@H](Cc1ccc(O)cc1)NC(=O)[C@H](CO)NC(=O)[C@H](Cc1c[nH]c2ccccc12)NC(=O)[C@H](Cc1c[nH]cn1)NC(=O)[C@@H]1CCC(=O)N1
- % inhibition of Pregnancy ([1]; PO, total daily dose 200 μg/rat, Rx days 7-12 post coitus): 0%
- % inhibition of Pregnancy [1, 3]: 67%
- % inhibition of Pregnancy [1, 4]: 100%
- % inhibition of Pregnancy [1, 5]: 100%
- % inhibition of Pregnancy ([1]; SC, total daily dose 0.10 μg/rat, Rx days 7-12 post coitus): 0%
- % inhibition of Pregnancy ([1]; SC, total daily dose 1.0 μg/rat, Rx days 1-7 post coitus): 100%
- % inhibition of Pregnancy ([1]; SC, total daily dose 1.0 μg/rat, Rx days 7-12 post coitus): 100%
- % inhibition of Pregnancy [1, 6]: 100%
- % inhibition of Pregnancy ([1]; SC, total daily dose 50 μg/rat, Rx days 1-3 post coitus): 40%
- % inhibition of Pregnancy [1, 7]: 80%
- % inhibition of Pregnancy [1, 8]: 100%
- % inhibition of Pregnancy [1, 9]: 100%
- % inhibition of Pregnancy [1, 10]: 100%
- % inhibition of Pregnancy ([1]; SC, total daily dose 5000 μg/rat, Rx day 7 post coitus): 0%
- % inhibition of Pregnancy ([1]; SC, total daily dose 5000 μg/rat, Rx day 8 post coitus): 100%
- % inhibition of Pregnancy ([1]; SC, total daily dose .002 μg/rat, Rx days 1-7 post coitus): 0%
- % inhibition of Pregnancy ([1]; SC, total daily dose .010 μg/rat, Rx days 1-7 post coitus): 30%
- activity relative to LRH [2]: ~50 times
- potency/activity versus LRH, in words [2]: markedly more potent than LRH

SMILES: CCNC(=O)[C@@H]1CCCN1C(=O)[C@H](CCCNC(=N)N)NC(=O)[C@H](CC(C)C)NC(=O)[C@@H](CC(C)C)NC(=O)[C@H](Cc1ccc(O)cc1)NC(=O)[C@H](CO)NC(=O)[C@H](Cc1c[nH]c2ccccc12)NC(=O)[C@H](Cc1c[nH]cn1)NC(=O)[C@@H]1CCC(=O)N1
- % inhibition of Pregnancy [1, 9]: 20%
- % inhibition of Pregnancy ([1]; SC, total daily dose 200 μg/rat, Rx days 1-7 post coitus): 100%

SMILES: CCNC(=O)[C@@H]1CCCN1C(=O)[C@H](CCCNC(=N)N)NC(=O)[C@H](CC(C)C)NC(=O)[C@@H](CC)NC(=O)[C@H](Cc1ccc(O)cc1)NC(=O)[C@H](CO)NC(=O)[C@H](Cc1c[nH]c2ccccc12)NC(=O)[C@H](Cc1c[nH]cn1)NC(=O)[C@@H]1CCC(=O)N1
- % inhibition of Pregnancy [1, 3]: 20%
- % inhibition of Pregnancy ([1]; SC, total daily dose 5.0 μg/rat, Rx days 1-7 post coitus): 40%
- % inhibition of Pregnancy [1, 6]: 80%
- % inhibition of Pregnancy [1, 8]: 100%

SMILES: CCNC(=O)[C@@H]1CCCN1C(=O)[C@H](CCCNC(=N)N)NC(=O)[C@H](CS)NC(=O)[C@@H](C)NC(=O)[C@H](Cc1ccc(O)cc1)NC(=O)[C@H](CO)NC(=O)[C@H](Cc1c[nH]c2ccccc12)NC(=O)[C@H](Cc1c[nH]cn1)NC(=O)[C@@H]1CCC(=O)N1 ([pGlu]HWSY[dA]CRP-NHEt)
- activity relative to LRH as ovulation inducing agents (Proestrous female rats): > 40 times

SMILES: CCNC(=O)[C@@H]1CCCN1C(=O)[C@H](CCCNC(=N)N)NC(=O)[C@H](CS)NC(=O)[C@@H](CC(C)C)NC(=O)[C@H](Cc1ccc(O)cc1)NC(=O)[C@H](CO)NC(=O)[C@H](Cc1c[nH]c2ccccc12)NC(=O)[C@H](Cc1c[nH]cn1)NC(=O)[C@@H]1CCC(=O)N1 ([pGlu]HWSY[dL]CRP-NHEt)
- activity relative to LRH as ovulation inducing agents (Proestrous female rats): > 40 times

SMILES: CCNC(=O)[C@@H]1CCCN1C(=O)[C@H](CCCNC(=N)N)NC(=O)[C@H](CO)NC(=O)[C@@H](CC(C)C)NC(=O)[C@H](Cc1ccc(O)cc1)NC(=O)[C@H](CO)NC(=O)[C@H](Cc1c[nH]c2ccccc12)NC(=O)[C@H](Cc1c[nH]cn1)NC(=O)[C@@H]1CCC(=O)N1 ([pGlu]HWSY[dL]SRP-NHEt)
- activity relative to LRH as ovulation inducing agents (Proestrous female rats): > 40 times

SMILES: CCNC(=O)[C@@H]1CCCN1C(=O)[C@H](CCCNC(=N)N)NC(=O)[C@H](CO)NC(=O)[C@@H](CO)NC(=O)[C@H](Cc1ccc(O)cc1)NC(=O)[C@H](CO)NC(=O)[C@H](Cc1c[nH]c2ccccc12)NC(=O)[C@H](Cc1c[nH]cn1)NC(=O)[C@@H]1CCC(=O)N1 ([pGlu]HWSY[dS]SRP-NHEt)
- activity relative to LRH as ovulation inducing agents (Proestrous female rats): > 40 times

SMILES: CC(C)C[C@H](NC(=O)CNC(=O)[C@H](Cc1ccc(O)cc1)NC(=O)[C@H](CO)NC(=O)[C@H](Cc1c[nH]c2ccccc12)NC(=O)[C@H](Cc1cnc[nH]1)NC(=O)[C@@H]1CCC(=O)N1)C(=O)N[C@@H](CCCNC(=N)N)C(=O)N1CCC[C@H]1C(=O)NCC(N)=O [LRH, L-(5-oxo-prolyl)-L-histidyl-L-tryptophyl-L-seryl-L-tyrosyl-glycyl-L-leucyl-L-arginyl-L-prolyl-glycinamide, reference compound]
- % inhibition of Pregnancy [1, 11]: 20%
- % inhibition of Pregnancy [1, 3]: 0%
- % inhibition of Pregnancy [1, 4]: 60%
- % inhibition of Pregnancy [1, 5]: 100%
- % inhibition of Pregnancy ([1]; SC, total daily dose 50 μg/rat, Rx days 1-7 post coitus): 0%
- % inhibition of Pregnancy [1, 7]: 0%
- % inhibition of Pregnancy [1, 8]: 100%
- % inhibition of Pregnancy ([1]; SC, total daily dose 200 μg/rat, Rx days 7-12 post coitus): 50%
- % inhibition of Pregnancy [1, 12]: 20%
- % inhibition of Pregnancy ([1]; SC, total daily dose 500 μg/rat, Rx days 1-3 post coitus): 40%
- % inhibition of Pregnancy ([1]; SC, total daily dose 1000 μg/rat, Rx days 1-3 post coitus): 40%
- % inhibition of Pregnancy ([1]; SC, total daily dose 1000 μg/rat, Rx days 1-7 post coitus): 100%
- % inhibition of Pregnancy [1, 10]: 100%
- post-coital anti-pregnancy (claudogenic/interceptive) effect ([1]; rat, administered post-coitally): effective in inhibiting pregnancy
- teratogenicity ([1]; rat, in vivo): some signs of teratogenicity

SMILES: CC(C)C[C@H](NC(=O)C(C)(C)NC(=O)[C@H](Cc1ccc(O)cc1)NC(=O)[C@H](CO)NC(=O)[C@H](Cc1c[nH]c2ccccc12)NC(=O)[C@H](Cc1c[nH]cn1)NC(=O)[C@@H]1CCC(=O)N1)C(=O)N[C@@H](CCCNC(=N)N)C(=O)N1CCC[C@H]1C(=O)NCC(N)=O [[2-methyl-Ala^6]LRH, L-(5-oxoprolyl)-L-histidyl-L-tryptophyl-L-seryl-L-tyrosyl-2-methylalanyl-L-leucyl-L-arginyl-L-prolylglycinamide acetate salt]
- % inhibition of Pregnancy [1, 8]: 75%
- % inhibition of Pregnancy ([1]; SC, total daily dose 500 μg/rat, Rx days 1-7 post coitus): 100%

SMILES: CC(C)C[C@H](NC(=O)[C@@H](C)NC(=O)[C@H](Cc1ccc(O)cc1)NC(=O)[C@H](CO)NC(=O)[C@H](Cc1c[nH]c2ccccc12)NC(=O)[C@H](Cc1c[nH]cn1)NC(=O)[C@@H]1CCC(=O)N1)C(=O)N[C@@H](CCCNC(=N)N)C(=O)N1CCC[C@H]1C(=O)NCC(N)=O [[D-Ala^6]LRH]
- % inhibition of Pregnancy [1, 7]: 17%
- % inhibition of Pregnancy [1, 12]: 50%

SMILES: CCNC(=O)[C@@H]1CCCN1C(=O)[C@H](CCCNC(=N)N)NC(=O)[C@H](CC(C)C)NC(=O)[C@@H](CC(=O)O)NC(=O)[C@H](Cc1ccc(O)cc1)NC(=O)[C@H](CO)NC(=O)[C@H](Cc1c[nH]c2ccccc12)NC(=O)[C@H](Cc1c[nH]cn1)NC(=O)[C@@H]1CCC(=O)N1 [[D-Asp^6, des-Gly-NH2^10]LRH ethylamide]
- activity relative to LRH as ovulation inducing agents (Proestrous female rats): > 40 times

SMILES: CCNC(=O)[C@@H]1CCCN1C(=O)[C@H](CCCNC(=N)N)NC(=O)[C@H](CC(C)C)NC(=O)[C@@H](CS)NC(=O)[C@H](Cc1ccc(O)cc1)NC(=O)[C@H](CO)NC(=O)[C@H](Cc1c[nH]c2ccccc12)NC(=O)[C@H](Cc1c[nH]cn1)NC(=O)[C@@H]1CCC(=O)N1 [[D-Cys^6, des-Gly-NH2^10]LRH ethylamide]
- activity relative to LRH as ovulation inducing agents (Proestrous female rats): > 40 times

SMILES: CCNC(=O)[C@@H]1CCCN1C(=O)[C@H](CCCNC(=N)N)NC(=O)[C@H](CC(C)C)NC(=O)[C@@H](CCC(=O)O)NC(=O)[C@H](Cc1ccc(O)cc1)NC(=O)[C@H](CO)NC(=O)[C@H](Cc1c[nH]c2ccccc12)NC(=O)[C@H](Cc1c[nH]cn1)NC(=O)[C@@H]1CCC(=O)N1 [[D-Glu^6, des-Gly-NH2^10]LRH ethylamide]
- activity relative to LRH as ovulation inducing agents (Proestrous female rats): > 40 times

SMILES: CCNC(=O)[C@@H]1CCCN1C(=O)[C@H](CCCNC(=N)N)NC(=O)[C@H](CC(C)C)NC(=O)[C@@H](CCCCN)NC(=O)[C@H](Cc1ccc(O)cc1)NC(=O)[C@H](CO)NC(=O)[C@H](Cc1c[nH]c2ccccc12)NC(=O)[C@H](Cc1c[nH]cn1)NC(=O)[C@@H]1CCC(=O)N1 [[D-Lys^6, des-Gly-NH2^10]LRH ethylamide]
- activity relative to LRH as ovulation inducing agents (Proestrous female rats): > 40 times

SMILES: CC(C)C[C@H](NC(=O)[C@@H](CCCCN)NC(=O)[C@H](Cc1ccc(O)cc1)NC(=O)[C@H](CO)NC(=O)[C@H](Cc1c[nH]c2ccccc12)NC(=O)[C@H](Cc1c[nH]cn1)NC(=O)[C@@H]1CCC(=O)N1)C(=O)N[C@@H](CCCNC(=N)N)C(=O)N1CCC[C@H]1C(=O)NCC(N)=O [[D-Lys^6]LRH, L-Pyroglutamyl-L-histidyl-L-tryptophyl-L-seryl-L-tyrosyl-D-lysyl-L-leucyl-L-arginyl-L-prolyl-glycinamide]
- % inhibition of Pregnancy [1, 11]: 40%
- % inhibition of Pregnancy ([1]; SC, total daily dose 5.0 μg/rat, Rx days 1-12 post coitus): 20%
- % inhibition of Pregnancy [1, 7]: 0%
- % inhibition of Pregnancy [1, 12]: 60%
- % inhibition of Pregnancy ([1]; SC, total daily dose 300 μg/rat, Rx days 1-7 post coitus): 100%
